Where two headings read alike, the source gives them in different places.
Assays:
tubulin [1] = conditions: literature values, refs [18], [12], [43]; read-out: dissociation constant (Kd) binding to tubulin; cited from earlier work
vaccinia virus = experiment: Plaque assay of vaccinia virus in BSC-40 cells; format: cell-based
tubulin [2] = target: T1, tubulin; experiment: Tubulin binding assay (fluorescence titration, quenching of intrinsic tubulin fluorescence); design: species or system Mammalian; conditions: double reciprocal plots; 0-100 μM ligand, 2 μM tubulin, 45 min at 37° C.; read-out: dissociation constant (Kd) binding to tubulin
T1 construct: other: double reciprocal plots; 0-100 μM ligand, 2 μM tubulin, 45 min at

| Structure (SMILES) | Kd (tubulin [1]) [µM] | Kd (tubulin [2]) [µM] | other results |
| --- | --- | --- | --- |
| COc1ccc2c(c1OC)C(=O)O[C@@H]2[C@H]1c2c(c(Br)c3c(c2OC)OCO3)CCN1C [9-Br-nos, (S)-6,7-dimethoxy-3-((R)-4-methoxy-6-methyl-9-bromo-5,6,7,8-tetrahydro-[1,3]dioxolo[4,5-g]isoquinolin-5-yl)isobenzofuran-1(3H)-one] | 54 ± 9.1 |  | spread of vaccinia virus in BSC-40 cells (vaccinia virus): inhibited; prevention of infection (vaccinia virus; 25 uM in 0.1% DMSO): does not prevent infection; plaque appearance (vaccinia virus; 25 uM in 0.1% DMSO, FIG. 1): only small “pinpoint” plaques are evident |
| COc1ccc2c(c1OC)C(=O)O[C@@H]2[C@H]1c2c(c(Cl)c3c(c2OC)OCO3)CCN1C [9-Cl-nos] | 40 ± 8 |  |  |
| COc1ccc2c(c1OC)C(=O)O[C@@H]2[C@H]1c2c(c(F)c3c(c2OC)OCO3)CCN1C [9-F-nos, (S)-6,7-dimethoxy-3-((R)-4-methoxy-6-methyl-9-fluoro-5,6,7,8-tetrahydro-[1,3]dioxolo[4,5-g]isoquinolin-5-yl)isobenzofuran-1(3H)-one] |  | 81 ± 8 |  |
| COc1ccc2c(c1OC)C(=O)O[C@@H]2[C@H]1c2c(c(I)c3c(c2OC)OCO3)CCN1C [9-I-nos, (S)-6,7-dimethoxy-3-((R)-4-methoxy-6-methyl-9-iodo-5,6,7,8-tetrahydro-[1,3]dioxolo[4,5-g]isoquinolin-5-yl)isobenzofuran-1(3H)-one] |  | 22 ± 4 |  |
| COc1ccc2c(c1OC)C(=O)O[C@@H]2[C@H]1c2c(cc3c(c2OC)OCO3)CCN1C [noscapine, (S)-6,7-dimethoxy-3-((R)-4-methoxy-6-methyl-5,6,7,8-tetrahydro-[1,3]dioxolo[4,5-g]isoquinolin-5-yl)isobenzofuran-1(3H)-one] | 144 ± 2.8 |  |  |

Reference: US20110274651A1, “Noscapine and Noscapine Analogs and Their Use in treating Infectious Diseases by Tubulin Binding Inhibition” (priority 2008, published 2011)
